Measured values from patent US6689764B1, “Treatment of angiogenesis dependent conditions with dextrin sulphate” (priority 1999, dated 2004).
Entries after “also recorded” stand apart in the source; their conditions may differ.

How the values were obtained:
HUVEC cell line = assay: TCS Biologicals Human Angiogenesis Model (tubule formation); format: cell-based
Protocol: The effect of sulphated dextrin on vessel formation of the HUVEC cell line was performed by the use of the TCS Biologicals Human Angiogenesis Model. The assay is supplied as a growing culture of the HUVEC cell line together with culture matrix and additional human cells present (the exact nature of the cells is not known) at the earliest stages of tubule formation in a 24-well format. The positive control reagent was a standard stock solution of VEGF and the negative control was Suramin. After removing the well seals, the cultures were examined for cell morphology to confirm their viability.
Growth medium was provided with the kit and was used to make up the sulphated dextrin at concentrations ranging from 0-1000 μg/ml. The existing medium was aspirated from the wells and replaced with medium containing the dextrin sulphate concentrations in a 0.5ml volume. This was placed at 37° C., in a 5% CO2 containing atmosphere. This was repeated on days 4, 7 and 9.
Between days 7-11 cultures were fixed by the enclosed fixative and stained with the mouse monoclonal anti-PECAM-1 antibody at a 1:4000 dilution (present in blocking buffer). 0.5ml of diluted antibody was added per well and incubated for 60 minutes at 37° C. The secondary antibody (goat anti-mouse lgG alkaline phosphatase conjugate) was diluted 1:500 in blocking buffer and added to the wells after washing for 60 minutes at 37° C. After washing the plate the substrate was prepared; BCIP/NBT tablets were dissolved in distilled water and added to the wells. Following incubation for 5-10 minutes the wells were washed and were imaged using the Leica Qwin image analysis software package.

HUVECs = assay: Proliferation induced by bFGF or VEGF, [3H]-thymidine incorporation; format: cell-based, human; conditions: 100 μg/ml, bFGF 10 ng/ml or VEGF 20 ng/ml
Protocol: FIG. 3: Graph to show the effect of sulphated dextrins on the proliferation of HUVECs induced by bFGF or VEGF was measured using a [^3H]-thymidine incorporation assay.
For these experiments, HUVECs (5×10^3/well) were suspended in Medium M199 containing 10% FCS, 2 mM L-glutamine, 100 Iu/ml penicillin and 0.1 mg/ml streptomycin. After 24 h, the media was replaced with fresh media containing either D2S (100 μg/ml) or D6S (100 μg/ml) for 1 h following which either bFGF (10 ng/ml) or VEGF (20 ng/ml, Preprotech, Rocky Hill, N.J.) were added. […] [^3H]-thymidine (1 mCi/ml, Amersham Pharrnacia, Bucks, UK) was added 48 h later and the cells cultured for a further 16 h. Cells were harvested using an automated Betaplate 96 well harvester (Wallac Oy, Turku, Finland) and the radioactivity counted using a Betaplate liquid scintillation counter.

[1] = tested on: human placental blood vessels; assay: Placental blood vessel in fibrin clot in vitro angiogenesis assay; format: cell-based; conditions: 100 μg/ml; for new vessel formation compared to media alone: up to day 22
Protocol: Compounds were tested at a final concentration of 100 μg/ml. The degree of new vessel formation was quantified blind twice a week using a visual analog scale in which 0=no growth, 1=minimal new vessel formation, 2=significant new vessel formation, and 3=dense new vessel formation. An angiogenesis score was derived from each count by dividing the total score (i.e. the sum of all the wells) by the maximum possible score and then expressing the result as a percentage. This graph is representative of 3 experiments with a total of 20 wells/plate/experiment for each compound tested.
Blood vessels (approximately 1-2 mm diameter) were excised from the apical surface of human placentas within 6 h of an elective Caesarean birth. Use of the placentas for these studies were approved by the Ethics Committee of Hammersmith Hospitals Trust, London. The blood vessels were placed in Hank's balanced salt solution and cut into 1-2 mm fragments using fine dissecting forceps and iridectomy scissors. Residual clots were removed and the blood vessels then soaked in Hank's balanced salt solution.
The effect of each compound on new blood vessel formulation was determined by culturing the blood vessels within a fibrin clot in 24-well tissue culture plates. Thirty μl of bovine thrombin (50 NIH U/ml in 0.15 M sodium chloride) was added to each well followed by 1 ml/well of 3 mg/ml bovine fibrinogen in Medium 199. The thrombin and fibrinogen were rapidly mixed and a blood vessel fragment placed in the centre of the well. Fibrin gel formation occurred rapidly and left the vessel suspended within the gel. One ml/well of Medium 199 supplemented with 20% foetal calf serum, 250 IU/ml penicillin and 250 U/ml streptomycin was then added to each well. ε-arnino-n-caproic acid was also added (300 μg/ml) for the first 4 days and twice weekly thereafter (50 μg/ml) in order to prevent dissolution of the fibrin clot. The vessels were cultured at 37° C. in a humidified incubator for 25 days with the media being changed twice weekly.
The degree of new vessel formation was quantified blind twice a week by three different observers using a visual analogue scale in which 0=no growth, 1=very little new vessel formation, 2=significant new vessel formation and 3=dense new vessel formation. An angiogenesis score was derived from the counts undertaken for each well by dividing the total score by the maximum score possible and then expressing the result as a percentage. On each of 3 separate occasions, each compound was tested in 20 replicate wells. […] Some of the fibrin clots were fixed overnight in 10% formalin, paraffin embedded, sectioned for histology and then stained for the endothelial cell markers Factor VIII and CD31. Results are expressed as the mean±sem. A students t-test was used to determine the level of significance.

KSY-1 cell line = assay: Proliferation with bFGF or VEGF, [3H]-thymidine incorporation; format: cell-based, human
[2] = tested on: human umbilical vein endothelial cells; assay: Endothelial microtubule formation assay on Matrigel; format: cell-based; conditions: HUVEC on Matrigel, scored at 18 h
Protocol: FIG. 6: The photomicrographs show endothelial microtubule formation in the presence of sulphated dextrins (×40 magnification). A visual analogue scale was used to determine the extent of tube formation and scored on a scale from 0 (all cells remain single) to 4 (all cells involved in tubular structures) as previously described (ref: 1,14). Space bar=100 microns.
The endothelial microtuble formation assay was performed by isolating human umbilical vein endothelial cells from umbilical cords within 6 h of delivery by caesarean section. The umbilical vein was cannulated and 0.1% collagenase in phosphate buffered saline was introduced and incubated for 20 minutes. The endothelial cells liberated by the collagenase were obtained by washing the umbilical vein with Medium 199. The cells were washed three times with Medium 199 and then cultured in tissue culture flasks coated with fibronectin. […]
Aliquots of Matrigel were dispensed into 35 mm diameter tissue culture dishes on ice and then incubated at 37° C. for 10 min to allow the gel to set. […] At various time points from 8-24 hours, the plates were examined and scored using a published scheme from 0-4, where 0=all adherent cells remain single, and 4=all adherent cells involved in tubular structures. New vessel formation was quantified blind by three different observers at 18 h. […]

Kaposi's sarcoma = assay: Phase I clinical trial in patients with late stage AIDS: Kaposi's sarcoma; format: in vivo, human
[3] = Accumulation in cells of the peritoneal cavity and peripheral blood of treated patients; format: in vivo, human
HPB-ALL cells = assay: [3H]-dextrin 2-sulphate binding to HPB-ALL cells
[4] = tested on: peripheral blood mononuclear cells and monocyte-derived-macrophages; assay: D2S cell surface binding to peripheral blood mononuclear cells and monocyte-derived-macrophages; conditions: PBMC and monocyte-derived-macrophages, read-out: dissociation constant
Protocol: Our previous studies of peripheral blood mononuclear cells and monocyte-derived-macrophages have shown that D2S binds to the cell surface in a specific and saturable manner with a dissociation constant of 82±14 nM.

HeLa cells = assay: [3H]-dextrin 2-sulphate binding to HeLa cells; conditions: n=9
HIV-1 = conditions: intra-peritoneal route, patients with late stage AIDS

Protocol for HUVEC's: (§1) Human umbilical vein endothelial cells (HUVEC's) were also harvested from umbilical cords by digestion with collagenase type II and cultured in 1% gelatin coated tissue culture flasks in Medium 199 supplemented with 20% fetal bovine serum, 100 IU/ml penicillin, 0.1 mg/ml streptomycin, 2mM L-glutamine, 10 U/ml heparin and 20 μg/ml endothelial cell growth supplement. The KS Y-1 cell line which was established from the pleural effusion of a patient with AIDS-associated Kaposi's sarcoma was also studied. It was CD34 and CD31 positive confirming it as being of endothelial origin.
(§2) The effect of sulphated dextrins on the growth of HUVEC's and KSY-1 cells which were being cultured in the presence of basic fibroblast growth factor (bFGF) or vascular endothelial growth factor (VEGF) was also determined.
Protocol for KSY-1 cells: as §1, §2

With `Cc1ccc(C(=O)Nc2ccc(S(=O)(=O)O)c3cc(S(=O)(=O)O)cc(S(=O)(=O)O)c23)cc1NC(=O)c1cccc(NC(=O)Nc2cccc(C(=O)Nc3cc(C(=O)Nc4ccc(S(=O)(=O)O)c5cc(S(=O)(=O)O)cc(S(=O)(=O)O)c45)ccc3C)c2)c1` [Suramin, reference compound] the “branch points, inhibition” value (HUVEC cell line; negative control reagent) was 98% and the “tubule number, inhibitory effect compared to vehicle control” value (HUVEC cell line; negative control reagent) was 51%.
With VEGF the “branch points, elevation” value (HUVEC cell line; positive control reagent) was 131% and the “tubule number, elevation compared to vehicle control” value (HUVEC cell line; positive control reagent) was 174%.
In the case of dextrin 6-sulphate, the “effect on proliferation induced by bFGF or VEGF” value (shortened to “effect on proliferation induced”) (HUVECs) is reported as “do not interfere”, the “effect on proliferation induced” value (HUVECs; listed as D6S) is reported as “no significant effect” and the “new vessel formation compared to media alone” value [1] is reported as “reduced the rate of new vessel formation”. The “new vessel formation compared to media alone” value ([1]; listed as Dextrin 6-sulphate) was “significant decrease in new vessel formation” and the “effect on proliferation with bFGF or VEGF” value (KSY-1 cell line) was “do not interfere”.
For dextrin, the “cell viability (Trypan blue exclusion)” value (KSY-1 cells) was over 95%, the “rate of cell division” value (KSY-1 cells; KSY-1 cells, 7 day period, twice weekly cell counts) was “Neither dextrin nor sulphated dextrins affected” and the “cell viability (Trypan blue exclusion)” value (HUVEC's) was over 95%. For the same compound, the “rate of cell division” value (HUVEC's; HUVEC's, 7 day period, twice weekly cell counts) was “Neither dextrin nor sulphated dextrins affected” and the “new vessel formation compared to media alone” value [1] was “no difference”.
With dextrin 2,6-sulphate the “anti-angiogenic activity (microtubule formation)” value [2] was “more than that seen with D2S but less than that seen with D6S”.
For dextrin 2-sulphate, the “Kaposi's sarcoma clinical response” value (Kaposi's sarcoma) was “clinical regression of Kaposi's sarcoma in three patients”, the “effect on proliferation induced” value (HUVECs) was “do not interfere” and the “effect on proliferation induced” value (HUVECs; listed as D2S) was “no significant effect”. For the same compound, the “accumulation in cells of treated patients” value [3] was “accumulated in the peritoneal macrophages and mesothelial cells”, the Bmax (HPB-ALL cells) was 4.8±0.3 pmol/10^6 cells and the Kd (HPB-ALL cells; specific and saturable binding, read-out: dissociation constant (Kd)) was 82 ± 14 nM. For the same compound, the Kd [4] was 82 ± 14 nM, the Bmax (HeLa cells) was 4.1±0.2 pmol/10^6 cells and the Kd (HeLa cells) was 107 ± 12 nM. For the same compound, the “viral load of HIV-1” value (HIV-1) was “significant and sustained fall”, the “new blood vessel formation score (scale 0-3)” value ([1]; day 22) was 1 and the “new vessel formation compared to media alone” value [1] was “reduced the rate of new vessel formation; also recorded: significant reduction in the number of new vessels”. The “effect on proliferation with bFGF or VEGF” value (KSY-1 cell line) was “do not interfere”.
